Like-named read-outs stand apart in the source and are kept apart here.
Assays:
human α1D-adrenoceptors = target: T1, human α1D-adrenoceptors (Homo sapiens, UniProt P25100); test: Radioligand-receptor binding assay, human recombinant α1D-adrenoceptor, [3H]prazosin
T1 sequence (P25100 1-572): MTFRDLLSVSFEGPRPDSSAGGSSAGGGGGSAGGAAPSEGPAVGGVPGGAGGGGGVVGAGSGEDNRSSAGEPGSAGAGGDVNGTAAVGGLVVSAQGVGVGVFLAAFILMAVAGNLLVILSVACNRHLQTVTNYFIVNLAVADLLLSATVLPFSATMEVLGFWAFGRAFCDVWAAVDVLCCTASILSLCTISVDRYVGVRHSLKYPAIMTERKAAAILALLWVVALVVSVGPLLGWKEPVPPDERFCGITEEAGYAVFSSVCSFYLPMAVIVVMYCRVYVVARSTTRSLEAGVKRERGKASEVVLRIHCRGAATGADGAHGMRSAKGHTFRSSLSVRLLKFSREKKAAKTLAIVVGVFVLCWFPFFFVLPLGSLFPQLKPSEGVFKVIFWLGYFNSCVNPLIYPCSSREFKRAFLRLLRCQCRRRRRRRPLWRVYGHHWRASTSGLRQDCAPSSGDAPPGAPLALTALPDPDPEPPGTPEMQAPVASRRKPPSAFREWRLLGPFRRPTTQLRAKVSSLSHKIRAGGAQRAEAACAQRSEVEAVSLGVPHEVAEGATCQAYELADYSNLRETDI
Method: Chinese hamster ovary (CHO) cells which had been stably transfected with human α1A, α1B, or α1D-adrenoceptors (Keffel et al., Biochem. Biophys. Res. Commun., 2000, 272, 906–11) were cultured in an atmosphere of 5% CO2/95% air at 37° C. in F-12 HAM medium supplemented with 10% heat-inactivated fetal calf serum, 1 mM glutamine, 100 U/ml penicillin and 0.1 mg/ml streptomycin. Selection pressure was maintained by regular addition of geneticin to the culture medium.
Competitive radioligand binding to the cloned subtypes of […] was performed using [^3H]prazosin as the radioligand as described by Michel et al, Br. J. Pharmacol., 98, 883–889 (1989) with minor modifications. Experiments were performed in binding buffer consisting of 50 mM Tris, 10 mM MgCl2 and 0.5 mM EDTA at pH 7.5 in a total assay volume of 1000 μl. The protein content typically was 40–60 μg/assay. The mixtures were incubated at 25° C. for 45 minutes. Incubations were terminated by rapid vacuum filtration over GF/C filters followed by two washes of the filters each with 10 ml ice-cold incubation buffer. Non-specific binding was defined as binding in the presence of 10 μM phentolamine.
The IC50 & Kd were estimated by using the non-linear curve fitting program using G Pad Prism software. The value of inhibition constant Ki was calculated from competitive binding studies by using Cheng & Prusoff equation [Cheng & Prusoff, Biochem. Pharmacol., 22, 3099–3108 (1973)], Ki=IC50/(1+L/Kd), where L is the concentration of [^3H] prazosin used in the particular experiment. Kd of [^3H] prazosin was determined from saturation binding studies. The values were tabulated as mean±SEM of pKi values, where pKi is the −log of Ki value.

[1] = target: T2, rat α1A-adrenoceptor (prostate) (Rattus norvegicus, UniProt P43140); test: In-vitro functional study, agonist-induced contractile response on isolated rat prostate; format: biochemical
T2 sequence (P43140 1-466): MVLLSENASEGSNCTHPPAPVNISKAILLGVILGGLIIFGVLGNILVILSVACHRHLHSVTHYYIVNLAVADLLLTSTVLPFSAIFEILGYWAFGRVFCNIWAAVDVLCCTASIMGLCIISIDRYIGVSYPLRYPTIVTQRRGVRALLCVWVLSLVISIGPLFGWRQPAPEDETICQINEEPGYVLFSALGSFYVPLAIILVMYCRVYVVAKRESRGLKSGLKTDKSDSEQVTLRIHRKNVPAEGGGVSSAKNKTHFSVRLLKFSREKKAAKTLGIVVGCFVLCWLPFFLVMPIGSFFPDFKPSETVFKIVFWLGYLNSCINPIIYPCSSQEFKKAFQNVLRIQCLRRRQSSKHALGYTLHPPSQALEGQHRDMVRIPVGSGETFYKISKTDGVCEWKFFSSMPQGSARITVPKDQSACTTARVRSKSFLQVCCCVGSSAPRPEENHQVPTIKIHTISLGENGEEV
Method: Aorta, prostate and spleen tissues were isolated from urethane anaesthetized (1.5 gm/kg) male wistar rats. […] A resting tension of 2 g (aorta) or 1 g (spleen and prostate) was applied to tissues. Contractile response was monitored using a force displacement transducer and recorded on chart recorders. Tissues were allowed to equilibrate for 2 hours. At the end of equilibration period, concentration response curves to norepinephrine (aorta) and phenylepinephrine (spleen and prostate) were obtained in absence and presence of tested compound (at concentrations of […]). Antagonist affinities were calculated and expressed as pKB vales in Table II.
To compare the differences in pKB at the α1-arenrenoceptor subtypes one-way ANOVA followed by Dunett ‘t’ test was applied. A p<0.05 was considered statistically significant.

5-HT1A receptors = target: T3, 5-HT1A receptors (Homo sapiens, UniProt P08908); test: biochemical; format: binding
T3 sequence (P08908 1-422): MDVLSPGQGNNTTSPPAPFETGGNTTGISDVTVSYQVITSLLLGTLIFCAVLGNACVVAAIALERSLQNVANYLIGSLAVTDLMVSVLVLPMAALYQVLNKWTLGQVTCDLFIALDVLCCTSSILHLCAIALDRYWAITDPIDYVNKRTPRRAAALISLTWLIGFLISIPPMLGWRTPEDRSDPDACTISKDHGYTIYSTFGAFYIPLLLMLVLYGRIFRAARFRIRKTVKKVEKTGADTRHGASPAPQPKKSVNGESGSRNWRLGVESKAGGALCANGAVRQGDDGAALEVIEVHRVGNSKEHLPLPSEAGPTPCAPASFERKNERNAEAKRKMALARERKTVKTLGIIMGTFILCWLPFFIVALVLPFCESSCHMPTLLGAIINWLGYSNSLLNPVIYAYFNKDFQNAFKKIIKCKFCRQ
Method: Receptor binding assays were performed using human recombinant 5HT1A receptors. […] Non-specific binding was defined by 10 μM Metergoline.

D-3 receptors = D-3 receptors (Homo sapiens, UniProt P35462); test: Radioligand-receptor binding assay, human recombinant D3 receptors, [3H]Spiperone
Method: Receptor binding assays were performed using human recombinant D3 receptors. […] Non-specific binding was defined by 25 μM S(−)Sulpiride.

D-3 receptors, sequence (P35462 whole entry): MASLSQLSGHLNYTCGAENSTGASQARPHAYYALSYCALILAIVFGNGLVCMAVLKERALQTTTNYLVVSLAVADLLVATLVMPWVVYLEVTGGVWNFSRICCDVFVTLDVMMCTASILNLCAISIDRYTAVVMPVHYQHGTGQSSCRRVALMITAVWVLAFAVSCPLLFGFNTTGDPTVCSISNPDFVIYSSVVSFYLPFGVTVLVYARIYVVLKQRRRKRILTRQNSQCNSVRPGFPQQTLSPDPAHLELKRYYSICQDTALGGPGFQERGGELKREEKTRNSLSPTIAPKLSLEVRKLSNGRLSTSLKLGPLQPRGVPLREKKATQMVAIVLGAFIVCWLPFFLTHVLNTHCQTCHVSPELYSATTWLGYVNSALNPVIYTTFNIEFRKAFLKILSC

Structure (SMILES)	Ki (human α1D-adrenoceptors; human recombinant receptors in CHO cells, mean ± SEM, read-out: pKi α1D (converted)) [nM]	Kb ([1]; rat prostate, phenylepinephrine-induced contraction, read-out: pKB α1A (converted)) [nM]	Ki (5-HT1A receptors; human recombinant receptors, read-out: PKi 5HT1A (converted)) [nM]	Ki (D-3 receptors) [nM]	Ki (human α1D-adrenoceptors) [nM]	Kb [1] [nM]	α1A versus α1B selectivity ([1]; functional assays, rat tissues) [fold]	Ki (5-HT1A receptors) [nM]	fold greater α1A versus 5HT1A selectivity as compared to tamsulosin (5-HT1A receptors; Tables I and III) [fold]	fold lower affinity for 5HT1A receptors than tamsulosin (5-HT1A receptors; human recombinant receptors) [fold]	fold greater α1A versus D3 selectivity as compared to tamsulosin (D-3 receptors; Table I and IV) [fold]	fold lower affinity for D3 receptors than tamsulosin (D-3 receptors; human recombinant receptors) [fold]
CCOc1ccccc1OCCNC(C)Cc1ccc(OC)c(S(N)(=O)=O)c1 (single isomer, unassigned; (-)) [Tamsulosin, (−) isomer of 5-[2-[2-(2-ethoxyphenoxy)ethylamino]-2-methylethyl]-2-methoxybenzene sulfonamide, reference compound]	0.0813	0.0309	0.794	0.282								
CCOc1ccccc1OCCN[C@H](C)Cc1ccc(O)c(S(N)(=O)=O)c1 [Formula I, R (−)-5-[2-[[2-(2-ethoxyphenoxy)ethyl]amino]propyl]-2-hydroxybenzenesulfonamide]				1.78	0.107	0.0162	31	9.77	27	12.6	14	6

From patent US7084301B2 (Ranbaxy Laboratories Limited, priority 2003, dated 2006)
